Data reported in patent US20040058428A1 (priority 2002, published 2004).

Columns and labels:
[1] = tested on: B. anthracis; type: cell-based, Bacillus anthracis
[2] = tested on: Staphylococcus aureus; type: cell-based
[3] = tested on: Klebsiella pneumoniae; type: cell-based
[4] = tested on: Citrobacter freundii; type: cell-based
[5] = tested on: B. thuringiensis; type: cell-based
[6] = tested on: B. cereus strains; type: cell-based
[7] = tested on: B. subtilis; type: cell-based
[8] = tested on: B. megaterium; type: cell-based
[9] = tested on: E. coli; type: cell-based, Escherichia coli
[10] = tested on: mold colonies; type: cell-based
[11] = tested on: 13 diverse bacterial stock species; type: cell-based
[12] = tested on: non-anthracis gram positive species; type: cell-based

`O=C([O-])CN(CCN(CC(=O)O)CC(=O)O)CC(=O)[O-].[Na+].[Na+]` [EDTA, disodium ethylenediaminetetraacetate] was tested, and the “effect on B. anthracis growth” value [1] was “undesirably inhibiting” and the “effect on Staphylococcus aureus growth” value [2] was “no effect”.
With `CO/N=C(\C(=O)N[C@@H]1C(=O)N2C(C(=O)O)=C(COC(C)=O)CS[C@H]12)c1csc(N)n1` [cefotaxime] the “growth of Klebsiella pneumoniae” value [3] was “inhibited”, the “growth of Citrobacter freundii” value [4] was “inhibited” and the “appearance of B. anthracis colonies” value [1] was “failed to appear”. The “growth of B. thuringiensis” value [5] was “inhibited”, the “growth of Staphylococcus aureus” value [2] was “inhibited” and the “growth of some strains of B. cereus” value [6] was “grow to form colonies”. The “growth of B. subtilis” value [7] was “inhibited”, the “growth of B. megaterium” value [8] was “inhibited” and the “growth of E. coli” value [9] was “inhibited”.
For `C[C@@H]1C[C@@H]([C@H](O)CC2CC(=O)NC(=O)C2)C(=O)[C@@H](C)C1` [cycloheximide], the “effect on mold contamination” value [10] was “eliminated all mold contamination” and the “effect on pattern of bacterial growth” value [11] was “did not alter the pattern of bacterial growth”.
In the case of `[H]/N=C(/N)N[C@H]1[C@H](O)[C@@H](O)[C@H](O[C@@H]2O[C@@H](C)[C@](O)(C=O)[C@H]2O[C@@H]2O[C@@H](CO)[C@H](O)[C@@H](O)[C@@H]2NC)[C@@H](N/C(N)=N\[H])[C@@H]1O` [streptomycin], the “growth of E. coli strains” value [9] is reported as “inhibited”.
`CC(=O)[O-].[Tl+]` [thallous acetate] was tested, and the “B. anthracis growth and colony formation” value [1] was “allowed B. anthracis to grow readily and form colonies”, the “delay of appearance of visible B. anthracis colonies” value [1] was “delayed approximately one day” and the “susceptibility of Staphylococcus aureus” value [2] was “completely resistant”. The “restriction of growth of non-anthracis gram positive species including some B. cereus strains” value [12] was “not sufficiently restrictive” and the “restriction of non-anthracis gram positive spore forming species (including some B. cereus strains)” value [12] was “adequately restrictive”.
In the case of lysostaphin, the “effect on B. anthracis growth” value [1] is reported as “without affecting” and the “effect on Staphylococcus aureus growth” value [2] is reported as “severely retarded”.
polymyxin B sulfate was tested, and the “growth of E. coli strains” value [9] was “not inhibited”.
